The values that follow come from patent publication US6469008B2, “(R)-hydroxynefazodone antipsychotic therapy” (Sepracor Inc., priority 1999, dated 2002).

The term IC50 denotes the midpoint of a concentration-inhibition curve.

The target in one data set is T1, 5-HT5A (Homo sapiens, UniProt P47898).
T1 construct: host or cells: membrane preparations
As to the kind of experiment: 5-HT5A receptor binding. To be noted: read-out: Serotonin Receptor Binding 5-HT5A (IC50). As to the method: (§1) Dopamine and serotonin receptor binding assays were performed in a standard manner with the incubation of membrane preparations in an assay buffer in the presence of a known radioactively labeled specific ligand for the receptor subtypes. Nonspecific binding was determined by assessing binding in the presence of excess ligand. Specific binding was measured as the total labeled ligand bound after the nonspecific binding was subtracted. The effect of the tested agents was measured by determining the competition for the receptor binding across a concentration range. Subsequently, an IC50 was determined for the agents tested. More specific details are provided below for several of the assays performed.

The conditions of data set [1]: AUC and Cmax increasing more than proportionally with dose and upon multiple dosing; cited from earlier work.
Data set [2] deals with 5-HT2 receptors versus dopamine receptors. As to the kind of experiment: Selectivity from dopamine and serotonin receptor binding data. To be noted: compared with nefazodone or S-hydroxynefazodone. As for the experimental part:
as §1

T1 sequence (P47898 whole entry, species assumed): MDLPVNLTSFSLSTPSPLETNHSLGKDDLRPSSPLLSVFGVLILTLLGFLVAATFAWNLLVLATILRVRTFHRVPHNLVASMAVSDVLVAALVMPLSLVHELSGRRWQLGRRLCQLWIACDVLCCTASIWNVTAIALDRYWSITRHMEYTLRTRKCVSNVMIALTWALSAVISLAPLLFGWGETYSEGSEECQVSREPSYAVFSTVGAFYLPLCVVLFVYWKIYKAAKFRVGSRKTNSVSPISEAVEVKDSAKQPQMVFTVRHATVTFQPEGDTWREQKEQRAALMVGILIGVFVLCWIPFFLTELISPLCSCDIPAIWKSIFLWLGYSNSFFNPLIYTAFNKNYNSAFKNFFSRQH

For `C[C@H](O)c1nn(CCCN2CCN(c3cccc(Cl)c3)CC2)c(=O)n1CCOc1ccccc1` [(S)-OH, (S)-2-{3-[4-(3-Chlorophenyl)-1-piperazinyl]propyl}-4-(2-phenoxyethyl)-5-[1-(hydroxy)-ethyl]-2,4-dihydro-[1,2,4]triazol-3-one], the IC50 on 5-HT5A came out at 1970 nM. Regarding `CC(O)c1nn(CCCN2CCN(c3cccc(Cl)c3)CC2)c(=O)n1CCOc1ccccc1` (racemic) [(RS)-OH, 2-[3-[4-(3-chlorophenyl)1-piperazinyl]propyl]-5-(1-hydroxyethyl)-2,4-dihydro-4-(phenoxyethyl)-3H-1,2,4-triazol-3-one, reference compound], the “kinetics for dose and time (AUC and Cmax)” value in data set [1] is reported as “nonlinear kinetics”. The IC50 on 5-HT5A came to 2230 nM.

Consider `C[C@@H](O)c1nn(CCCN2CCN(c3cccc(Cl)c3)CC2)c(=O)n1CCOc1ccccc1` [(R)-OH, (R)-hydroxynefazodone], for which the “selectivity for 5-HT family of receptors, in particular 5-HT2, versus dopamine receptors (D2 and D4)” value in data set [2] is “interacts more selectively”. In addition, the IC50 at 5-HT5A is 2040 nM.
